Measurements as given in patent US6372297B1, “Wood preservative oxathiazines” (Uniroyal Chemical Company, Inc., priority 1993, dated 2002).

Experiments:
[1] = system: mixed spore suspension: Aureobasidium pullulans, Aspergillus amstelodami, Ceratocystis pilifera, Cladosporium sp., Penicillium sp., Sclerophomas entoxylina …; experiment: Control of molds and sapstain fungi in mini-board test; design: key to Surface score of treated mini-boards, 3 week incubation, 1500 ppm / Surface score of treated mini-boards, 3 week incubation, 2500 ppm: 0: Free of fungal growth; 1: Traces of fungal growth; 2: Little fungal growth; 3: Moderate fungal growth; 4: Vigorous to maximum growth (all surfaces covered with fungal growth)
Text: Representative compounds of this invention to be tested, were suspended in an aqueous solution containing 7.5% GENAPOL X 080™ (Hoechst-Celanese Corporation), and 20% propylene glycol monomethyl ether, to prepare the test solutions. […]
Deep frozen boards (300×50×10 mm) of freshly felled sapwood of Pinus sylvestrus (mini-boards) were thawed at room temperature. One half of each mini-board was immersed in a test solution for 20 seconds. The mini-boards were then sprayed with mixed spore suspension containing the following fungi:
Sclerophomas entoxylina, and
and stored in incubation boxes at 25° C. and at 100% relative humidity, for three weeks. For each compound tested, each concentration of test solution was applied to five different mini-boards.
The efficacy of the test compounds was determined by comparing the fungal growth on both the treated and untreated parts of the mini-boards.
The degree of infection was scored according to the following scale:
1=Traces of fungal growth
4=Vigorous to maximum growth (all surfaces covered with fungal growth)

[2] = system: blue-stain fungi and molds; experiment: Activity against blue-stain fungi and molds on a stick test on vermiculite (paint film); design: key to Surface score of wooden sticks treated with paint formulation, C. cladosporioides / Surface score of wooden sticks treated with paint formulation, P. purpurogenum / Surface score of wooden sticks treated with paint formulation, P. violacea / Surface score of wooden sticks treated with paint formulation, R rubra (y) / Surface score of wooden sticks treated with paint formulation, S. chartarum / Surface score of wooden sticks treated with paint formulation, A. versicolor / Surface score of wooden sticks treated with paint formulation, A. pullulans: 0: No growth; Trace of growth of up to 1% coverage of the test inoculated area; 2: Growth covering between 1 and 10% of the inoculated test area; Growth covering between 10 and 30% of the inoculated test area; 4: Growth covering between 30 and 70% of the inoculated test area; 5: Growth covering more than 70t of the inoculated test area; settings: 12 weeks on vermiculite; for Surface score of wooden sticks treated with paint formulation, R rubra (y): R rubra (yeast)
Protocol: Beech sticks (73×18×2 mm) Fagus sylvatica were painted, allowed to dry, and sterilized by γ-radiation (1.2 mRad). […] The coated sticks prepared above were then dipped in a spore suspension of pure culture of each fungus. Seven sticks each were placed in autoclaved Petri dishes (200 mm in diameter, 30 mm in height) containing 300 ml of vermiculite and 120 ml of water, and incubated for 12 weeks. The surfaces of the sticks were then examined for the growth of fungus and were evaluated according to the following scoring system: 0: No growth 1: […] 2: […] 3: […] 4. […] 5. Growth covering more than 70t of the inoculated test area.

[3] = system: mixed spore suspension of blue-stain fungus and molds; experiment: Activity against blue-stain fungi and molds in a mold cabinet test (BS3900: Part G6)
Protocol: Using the methods described in BS3900: Part G6: 1989, British Standard Methods of test for paints, “Assessment of resistance to fungal growth”, representative compounds of this invention were tested for activity against blue-stain fungus and molds in a mold cabinet test. In brief, sticks of Scots pine (Pinus sylvestris) measuring 75×100×10 mm, were painted, allowed to dry, and sterilized by […] (1.2 mRad). […] The sticks were then with each solution. The inoculation consisted of dipping the sticks in a mixed spore suspension, then placing them in a mold chamber and incubating them for 12 weeks. The surfaces were evaluated according the following score system: 0: No growth 1: […] 2: […] 3: […] 4. […] 5. Growth covering more than 70% of the inoculated test area.

[4] = system: molds and blue-stain fungi; experiment: In vitro activity against molds and blue-stain fungi, poison plate assay (MIC); assay type: cell-based; settings: malt extract agar, complete inhibition
Protocol: The effect of the representative compounds on the growth of certain molds and blue-strain fungi were determined using a poison plate assay according to the following procedure: The solutions of the representative compounds prepared above were further diluted with sterile water to desired concentrations and poured into Petri dishes. Malt extract agar medium was then added aseptically to the Petri dishes and to Petri dishes containing no compound (controls). The Petri dishes were then shaken to provide a uniform distribution of the agar medium. Each Petri dish containing compound and each control Petri dish, was then inoculated with a fungus and incubated for a period of time sufficient to permit complete growth of the fungus in the respective control Petri dish. The Petri dishes containing compound were then examined to determine the amount of inhibition of fungi for each concentration of compound tested.

[5] = system: blue-stain fungi and molds; experiment: Activity against blue-stain fungi and molds in a stick test (threshold concentrations); settings: beech sticks, 22° C., 90% relative humidity
Protocol: Representative compounds of this invention were dissolved in 50% ethanol. Each compound was then diluted serially using 50% ethanol. […] After three (3) hours, the solutions containing the test compounds were poured off and the treated sticks were allowed to dry in a sterile laminar air flow. Each treated stick was then placed in a Petri dish which had been previously seeded with inoculum. Two drops of a test fungal or spore suspension were pipetted onto the upper surface of each treated stick. The Petri dishes containing the treated sticks were incubated at 22° C. and 90% relative humidity. The treated sticks were evaluated after there was sufficient growth of fungus on control sticks (i.e., untreated sticks) incubated in the same manner. The following score system was used: 0: Stick free of fungal/mold growth 1: Traces of fungal growth on the stick 2: Slight growth (5 to 25% of the surface covered with fungal growth) 3: Moderate growth (25 to 50% covered with fungal growth) 4. Vigorous to maximum fungal growth (more than 50% growth) […]

Q: With `O=S1(=O)CCON=C1c1ccsc1` [Compound 78] as the compound, how does the “Surface score of treated mini-boards, 3 week incubation, 1500 ppm” value (“Surface score … 3 week incubation, 1500 ppm” for short) [1] read?
A: 0.2

Q: What about the “Surface score of treated mini-boards, 6 week incubation, 1500 ppm” value (from here on “Surface score … 6 week incubation, 1500 ppm”) [1] of the same compound?
A: 1.2

Q: And the “Surface score of treated mini-boards, 3 week incubation, 2500 ppm” value (from here on “Surface score … 3 week incubation, 2500 ppm”) [1]?
A: 0.2

Q: And the “Surface score of treated mini-boards, 6 week incubation, 2500 ppm” value (from here on “Surface score … 6 week incubation, 2500 ppm”) [1]?
A: 1.8

Q: `Cc1ccc(C2=NOCC[S+]2[O-])s1` (stereo not drawn) [Compound 48] was tested. Which “Surface score … 3 week incubation, 1500 ppm” value [1] did it give?
A: 0

Q: And the “Surface score … 6 week incubation, 1500 ppm” value [1]?
A: 1.4

Q: What about the “Surface score … 3 week incubation, 2500 ppm” value [1] of the same compound?
A: 0

Q: What about the “Surface score … 6 week incubation, 2500 ppm” value [1] of the same compound?
A: 0.8

Q: `Cc1ccc(C2=NOCCS2(=O)=O)s1` [Compound 49] was tested. Which “Surface score … 3 week incubation, 1500 ppm” value [1] did it give?
A: 0

Q: What about the “Surface score … 6 week incubation, 1500 ppm” value [1] of the same compound?
A: 1.8

Q: And the “Surface score … 3 week incubation, 2500 ppm” value [1]?
A: 0

Q: And the “Surface score … 6 week incubation, 2500 ppm” value [1]?
A: 1.2

Q: For `O=S1(=O)CCON=C1c1ccc(Br)s1` [Compound 38], which “Surface score of wooden sticks treated with paint formulation, A. pullulans” value ([2]; 0.15% a.i. in paint) is on record?
A: 2 (Growth covering between 1 and 10% of the inoculated test area)

Q: And the “Surface score of wooden sticks treated with paint formulation, A. pullulans” value ([2]; 0.3% a.i. in paint)?
A: 0

Q: What about the “Surface score of wooden sticks treated with paint formulation, A. versicolor” value ([2]; 0.15% a.i. in paint) of the same compound?
A: 1 (Trace of growth of up to 1% coverage of the test inoculated area)

Q: And the “Surface score of wooden sticks treated with paint formulation, A. versicolor” value ([2]; 0.3% a.i. in paint)?
A: 0

Q: What about the “Surface score of wooden sticks treated with paint formulation, C. cladosporioides” value ([2]; 0.15% a.i. in paint) of the same compound?
A: 2 (Growth covering between 1 and 10% of the inoculated test area)

Q: What about the “Surface score of wooden sticks treated with paint formulation, C. cladosporioides” value ([2]; 0.3% a.i. in paint) of the same compound?
A: 0

Q: And the “Surface score of wooden sticks treated with paint formulation, P. purpurogenum” value ([2]; 0.15% a.i. in paint)?
A: 3 (Growth covering between 10 and 30% of the inoculated test area)

Q: What about the “Surface score of wooden sticks treated with paint formulation, P. purpurogenum” value ([2]; 0.3% a.i. in paint) of the same compound?
A: 3 (Growth covering between 10 and 30% of the inoculated test area)

Q: And the “Surface score of wooden sticks treated with paint formulation, P. violacea” value ([2]; 0.15% a.i. in paint)?
A: 4 (Growth covering between 30 and 70% of the inoculated test area)

Q: And the “Surface score of wooden sticks treated with paint formulation, P. violacea” value ([2]; 0.3% a.i. in paint)?
A: 4 (Growth covering between 30 and 70% of the inoculated test area)

Q: What about the “Surface score of wooden sticks treated with paint formulation, R rubra (y)” value ([2]; 0.15% a.i. in paint) of the same compound?
A: 3 (Growth covering between 10 and 30% of the inoculated test area)

Q: And the “Surface score of wooden sticks treated with paint formulation, R rubra (y)” value ([2]; 0.3% a.i. in paint)?
A: 0

Q: And the “Surface score of wooden sticks treated with paint formulation, S. chartarum” value ([2]; 0.15% a.i. in paint)?
A: 5 (Growth covering more than 70t of the inoculated test area)

Q: What about the “Surface score of wooden sticks treated with paint formulation, S. chartarum” value ([2]; 0.3% a.i. in paint) of the same compound?
A: 2 (Growth covering between 1 and 10% of the inoculated test area)

Q: And the “Surface score of wooden sticks treated with paint formulation, U. atrum” value ([2]; 0.15% a.i. in paint)?
A: 4 (Growth covering between 30 and 70% of the inoculated test area)

Q: And the “Surface score of wooden sticks treated with paint formulation, U. atrum” value ([2]; 0.3% a.i. in paint)?
A: 3 (Growth covering between 10 and 30% of the inoculated test area)

Q: And the “Surface score in a paint formulation in a mold cabinet test, 6 weeks” value ([3]; 0.15% in water-based paint)?
A: 2.5

Q: What about the “Surface score in a paint formulation in a mold cabinet test, 12 weeks” value ([3]; 0.15% in water-based paint) of the same compound?
A: 4.5

Q: What about the “Surface score in a paint formulation in a mold cabinet test, 6 weeks” value ([3]; 0.3% in water-based paint) of the same compound?
A: 2.5

Q: What about the “Surface score in a paint formulation in a mold cabinet test, 12 weeks” value ([3]; 0.3% in water-based paint) of the same compound?
A: 4.0

Q: And the “Surface score … 3 week incubation, 1500 ppm” value [1]?
A: 0.6

Q: And the “Surface score … 6 week incubation, 1500 ppm” value [1]?
A: 2.0

Q: What about the “Surface score … 3 week incubation, 2500 ppm” value [1] of the same compound?
A: 0.4

Q: And the “Surface score … 6 week incubation, 2500 ppm” value [1]?
A: 2.8

Q: `[O-][S+]1CCON=C1c1ccsc1` (stereo not drawn) [Compound 79] was tested. Which “Surface score … 3 week incubation, 1500 ppm” value [1] did it give?
A: 1.0

Q: What about the “Surface score … 6 week incubation, 1500 ppm” value [1] of the same compound?
A: 3.0

Q: What about the “Surface score … 3 week incubation, 2500 ppm” value [1] of the same compound?
A: 0

Q: What about the “Surface score … 6 week incubation, 2500 ppm” value [1] of the same compound?
A: 1.8

Q: `[O-][S+]1CCON=C1c1ccc(Cl)s1` (stereo not drawn) [Compound 60, 3-(5-Chloro-2-thienyl)-5.6-dihydro-1.4.2-oxathiazine-4-oxide] was tested. Which “MIC (ppm) against A. amstelodami” value ([4]; A. amstelodami) did it give?
A: 5 ppm

Q: And the “MIC (ppm) against A. niger” value ([4]; A. niger)?
A: 5 ppm

Q: And the “MIC (ppm) against A. pullulans” value ([4]; A. pullulans)?
A: 25 ppm

Q: What about the “MIC (ppm) against A. versicolor” value ([4]; A. versicolor) of the same compound?
A: 2.5 ppm

Q: What about the “MIC (ppm) against C. cladosporioides” value ([4]; C. cladosporioides) of the same compound?
A: 25 ppm

Q: And the “MIC (ppm) against C. pilifera” value ([4]; C. pilifera)?
A: 5 ppm

Q: And the “MIC (ppm) against F. solani” value ([4]; F. solani)?
A: 10 ppm

Q: What about the “MIC (ppm) against G. candidum” value ([4]; G. candidum) of the same compound?
A: 25 ppm

Q: What about the “MIC (ppm) against P. purpurogenum” value ([4]; P. purpurogenum) of the same compound?
A: 25 ppm

Q: And the “MIC (ppm) against P. variotii” value ([4]; P. variotii)?
A: 10 ppm

Q: What about the “MIC (ppm) against P. violacea” value ([4]; P. violacea) of the same compound?
A: 10 ppm

Q: What about the “MIC (ppm) against S. atra” value ([4]; S. atra) of the same compound?
A: 5 ppm

Q: What about the “MIC (ppm) against S. entoxylina” value ([4]; S. entoxylina) of the same compound?
A: 5 ppm

Q: What about the “MIC (ppm) against T. viride” value ([4]; T. viride) of the same compound?
A: 25 ppm

Q: What about the “MIC (ppm) against U. atrum” value ([4]; U. atrum) of the same compound?
A: 10 ppm

Q: And the “Threshold concentration (ppm), A. niger, score 0” value ([5]; A. niger, minimum concentration to obtain score 0)?
A: 500 ppm

Q: What about the “Threshold concentration (ppm), A. niger, score 1-2” value ([5]; A. niger, minimum concentration to obtain score 1-2) of the same compound?
A: <250 ppm

Q: And the “Threshold concentration (ppm), Aureobasidium, score 0” value ([5]; Aureobasidium, minimum concentration to obtain score 0)?
A: 1000 ppm

Q: What about the “Threshold concentration (ppm), Aureobasidium, score 1-2” value ([5]; Aureobasidium, minimum concentration to obtain score 1-2) of the same compound?
A: 100-250 ppm

Q: And the “Threshold concentration (ppm), Sclerophoma, score 0” value ([5]; Sclerophoma, minimum concentration to obtain score 0)?
A: 100 ppm

Q: What about the “Threshold concentration (ppm), Sclerophoma, score 1-2” value ([5]; Sclerophoma, minimum concentration to obtain score 1-2) of the same compound?
A: <50 ppm

Q: And the “Threshold concentration (ppm), Trichoderma, score 0” value ([5]; Trichoderma, minimum concentration to obtain score 0)?
A: 2500 ppm

Q: What about the “Threshold concentration (ppm), Trichoderma, score 1-2” value ([5]; Trichoderma, minimum concentration to obtain score 1-2) of the same compound?
A: 500-1000 ppm
